Experimental data published in PubChem BioAssay (NCI).
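Abbreviation: GI50, concentration required for 50% inhibition of growth. At the TGI there is no net growth.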

Columns and labels:
Assay in all cases: NCI anticancer screen, dose series, 384-well format
UACC-257 melanoma = system: UACC-257 melanoma
MDA-MB-435 melanoma = system: MDA-MB-435 melanoma
MCF7 breast = system: MCF7 breast
TK-10 renal = system: TK-10 renal
HCC-2998 colon = system: HCC-2998 colon
CCRF-CEM leukemia = system: CCRF-CEM leukemia
COLO 205 colon = system: COLO 205 colon
NCI-H322M lung = system: NCI-H322M lung
A498 renal = system: A498 renal
SNB-19 CNS = system: SNB-19 CNS
U251 glioblastoma = system: U251 glioblastoma
HCT-116 colon = system: HCT-116 colon
HOP-62 NSCLC = system: HOP-62 NSCLC
OVCAR-8 ovarian = system: OVCAR-8 ovarian
HT29 colon = system: HT29 colon
SR leukemia = system: SR leukemia
MALME-3M melanoma = system: MALME-3M melanoma
OVCAR-5 ovarian = system: OVCAR-5 ovarian
ACHN renal = system: ACHN renal
CAKI-1 renal = system: CAKI-1 renal
M14 melanoma = system: M14 melanoma
SK-MEL-2 melanoma = system: SK-MEL-2 melanoma
SN12C renal = system: SN12C renal
NCI-H522 lung = system: NCI-H522 lung
LOX IMVI melanoma = system: LOX IMVI melanoma
IGROV1 ovarian = system: IGROV1 ovarian
SNB-75 CNS = system: SNB-75 CNS
HOP-92 NSCLC = system: HOP-92 NSCLC
NCI-H460 NSCLC = system: NCI-H460 NSCLC
SK-MEL-28 melanoma = system: SK-MEL-28 melanoma

O=C(O)[C@H](Cc1c[nH]c2ccccc12)N1C(=O)c2ccccc2C1=O
GI50 (UACC-257 melanoma): > 100 µM | TGI (UACC-257 melanoma): > 100 µM | GI50 (MDA-MB-435 melanoma): > 100 µM | TGI (MDA-MB-435 melanoma): > 100 µM | GI50 (MCF7 breast): > 100 µM | TGI (MCF7 breast): > 100 µM | GI50 (TK-10 renal): > 100 µM | TGI (TK-10 renal): > 100 µM | GI50 (HCC-2998 colon): > 100 µM | TGI (HCC-2998 colon): > 100 µM | GI50 (CCRF-CEM leukemia): > 100 µM | TGI (CCRF-CEM leukemia): > 100 µM | GI50 (COLO 205 colon): > 100 µM | TGI (COLO 205 colon): > 100 µM | GI50 (NCI-H322M lung): > 100 µM | TGI (NCI-H322M lung): > 100 µM | GI50 (A498 renal): > 100 µM | TGI (A498 renal): > 100 µM | GI50 (SNB-19 CNS): > 100 µM | TGI (SNB-19 CNS): > 100 µM | GI50 (U251 glioblastoma): > 100 µM | TGI (U251 glioblastoma): > 100 µM | GI50 (HCT-116 colon): > 100 µM | TGI (HCT-116 colon): > 100 µM | GI50 (HOP-62 NSCLC): > 100 µM | TGI (HOP-62 NSCLC): > 100 µM | GI50 (OVCAR-8 ovarian): > 100 µM | TGI (OVCAR-8 ovarian): > 100 µM | GI50 (HT29 colon): > 100 µM | TGI (HT29 colon): > 100 µM | GI50 (SR leukemia): > 100 µM | TGI (SR leukemia): > 100 µM | GI50 (MALME-3M melanoma): > 100 µM | TGI (MALME-3M melanoma): > 100 µM | GI50 (OVCAR-5 ovarian): > 100 µM | TGI (OVCAR-5 ovarian): > 100 µM | GI50 (ACHN renal): > 100 µM | TGI (ACHN renal): > 100 µM | GI50 (CAKI-1 renal): > 100 µM | TGI (CAKI-1 renal): > 100 µM | GI50 (M14 melanoma): > 100 µM | TGI (M14 melanoma): > 100 µM | GI50 (SK-MEL-2 melanoma): > 100 µM | TGI (SK-MEL-2 melanoma): > 100 µM | GI50 (SN12C renal): > 100 µM | TGI (SN12C renal): > 100 µM | GI50 (NCI-H522 lung): > 100 µM | TGI (NCI-H522 lung): > 100 µM | GI50 (LOX IMVI melanoma): > 100 µM | TGI (LOX IMVI melanoma): > 100 µM | GI50 (IGROV1 ovarian): > 100 µM | TGI (IGROV1 ovarian): > 100 µM | GI50 (SNB-75 CNS): > 100 µM | TGI (SNB-75 CNS): > 100 µM | GI50 (HOP-92 NSCLC): > 100 µM | TGI (HOP-92 NSCLC): > 100 µM | GI50 (NCI-H460 NSCLC): > 100 µM | TGI (NCI-H460 NSCLC): > 100 µM | GI50 (SK-MEL-28 melanoma): > 100 µM | TGI (SK-MEL-28 melanoma): > 100 µM
